Reference: ChEMBL document CHEMBL4715903, “Design, Synthesis, and Biological Evaluation of IRAK4-Targeting PROTACs” (ACS Med Chem Lett, 2021)
Active and inactive are the calls of the source. No cut-off for these calls is given here.

Assays:
[1] = target: T1, Protein cereblon/Interleukin-1 receptor-associated kinase 4 (Homo sapiens) (UniProt Q9NWZ3+Q96SW2); experiment: Protac activity at CRBN/IRAK4 in human OCILY10 cells harboring MYD88 L265P mutant assessed as induction of IRAK4 degradation by measuring reduction in IRAK4 protein level at 1 uM incubated for 24 hrs by Western blot analysis; type: cell-based
[2] = target: T1, Protein cereblon/Interleukin-1 receptor-associated kinase 4 (Homo sapiens); experiment: Protac activity at CRBN/IRAK4 in human TMD8 cells harboring MYD88 L265P mutant assessed as induction of IRAK4 degradation by measuring reduction in IRAK4 protein level at 1 uM incubated for 24 hrs by Western blot analysis; type: cell-based
[3] = system: OCI-Ly10; experiment: Antiproliferative activity against human OCILY10 cells harboring MYD88 L265P mutant assessed as inhibition of cell growth incubated for 72 hrs by CCK-8 assay; type: functional, cell-based; details: OCI-Ly10, 72 h
[4] = system: TMD8; experiment: Antiproliferative activity against human TMD8 cells harboring MYD88 L265P mutant assessed as inhibition of cell growth incubated for 72 hrs by CCK-8 assay; type: functional, cell-based; details: TMD8, 72 h
[5] = target: T2, Interleukin-1 receptor-associated kinase 4 (Homo sapiens, UniProt Q9NWZ3); experiment: Inhibition of human full length N-terminal His6-tagged recombinant IRAK4 expressed in baculovirus-infected Sf21 cells by Z'-LYTE assay
T2 sequence (Q9NWZ3 whole entry): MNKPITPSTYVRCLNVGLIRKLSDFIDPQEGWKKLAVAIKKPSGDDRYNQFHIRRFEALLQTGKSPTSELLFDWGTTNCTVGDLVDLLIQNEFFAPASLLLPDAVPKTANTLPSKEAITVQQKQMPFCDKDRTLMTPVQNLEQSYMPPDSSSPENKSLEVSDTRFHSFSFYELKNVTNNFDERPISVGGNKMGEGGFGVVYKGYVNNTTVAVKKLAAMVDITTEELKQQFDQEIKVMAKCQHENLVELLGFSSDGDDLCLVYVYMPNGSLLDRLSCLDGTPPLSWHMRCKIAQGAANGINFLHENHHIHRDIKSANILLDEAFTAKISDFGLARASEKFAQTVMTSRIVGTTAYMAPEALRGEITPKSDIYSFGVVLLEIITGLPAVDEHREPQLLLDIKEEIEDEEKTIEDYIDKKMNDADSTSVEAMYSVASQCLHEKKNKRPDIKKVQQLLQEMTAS

[6] = target: T1, Protein cereblon/Interleukin-1 receptor-associated kinase 4 (Homo sapiens); experiment: Protac activity at CRBN/IRAK4 in human OCILY10 cells assessed as inhibition of NFkappaB p65 phosphorylation at 2.5 to 20 uM incubated for 48 hrs by Western blot analysis; type: cell-based; details: dose 2.5-20 µM
[7] = target: T1, Protein cereblon/Interleukin-1 receptor-associated kinase 4 (Homo sapiens); experiment: Protac activity at CRBN/IRAK4 in human TMD8 cells assessed as inhibition of NF-kappaB p65 phosphorylation by Western blot analysis; type: cell-based; details: dose 0.1-10 µM
[8] = target: T1, Protein cereblon/Interleukin-1 receptor-associated kinase 4 (Homo sapiens); experiment: Protac activity at CRBN/IRAK4 in human TMD8 cells harboring MYD88 L265P mutant assessed as induction of IRAK4 degradation at 1 uM pretreated with proteasome inhibitor, MG132 for 2 hrs followed by compound addition by Western blot analysis; type: cell-based
[9] = target: T1, Protein cereblon/Interleukin-1 receptor-associated kinase 4 (Homo sapiens); experiment: Protac activity at CRBN/IRAK4 in human OCILY10 cells harboring MYD88 L265P mutant assessed as induction of IRAK4 degradation by measuring reduction in IRAK4 protein level incubated for 24 hrs by Western blot analysis; type: cell-based; details: dose 0.1-10 µM
[10] = target: T1, Protein cereblon/Interleukin-1 receptor-associated kinase 4 (Homo sapiens); experiment: Protac activity at CRBN/IRAK4 in human TMD8 cells assessed as inhibition of IRAK4 phosphorylation by Western blot analysis; type: cell-based; details: dose 0.1-10 µM
[11] = target: T1, Protein cereblon/Interleukin-1 receptor-associated kinase 4 (Homo sapiens); experiment: Protac activity at CRBN/IRAK4 in human TMD8 cells assessed as inhibition of IKKalpha/beta phosphorylation by Western blot analysis; type: cell-based; details: dose 0.1-10 µM
[12] = target: T1, Protein cereblon/Interleukin-1 receptor-associated kinase 4 (Homo sapiens); experiment: Protac activity at CRBN/IRAK4 in human OCILY10 cells harboring MYD88 L265P mutant assessed as induction of IRAK4 degradation at 1 uM pretreated with proteasome inhibitor, MG132 for 2 hrs followed by compound addition by Western blot analysis; type: cell-based
[13] = target: T1, Protein cereblon/Interleukin-1 receptor-associated kinase 4 (Homo sapiens); experiment: Protac activity at CRBN/IRAK4 in human OCILY10 cells harboring MYD88 L265P mutant assessed as induction of IRAK4 degradation at 1 uM in presence of IRAK4 inhibitor, Methyl 4-(5-ethoxy-1-methyl-6-(6-(trifluoromethyl)picolinamido)-1H-benzo[d]imidazol-2-yl)-2,2-dimethylbutanoate by Western blot analysis; type: cell-based
[14] = target: T1, Protein cereblon/Interleukin-1 receptor-associated kinase 4 (Homo sapiens); experiment: Protac activity at CRBN/IRAK4 in human TMD8 cells harboring MYD88 L265P mutant assessed as induction of IRAK4 degradation at 1 uM in presence of IRAK4 inhibitor, Methyl 4-(5-ethoxy-1-methyl-6-(6-(trifluoromethyl)picolinamido)-1H-benzo[d]imidazol-2-yl)-2,2-dimethylbutanoate by Western blot analysis; type: cell-based
[15] = target: T1, Protein cereblon/Interleukin-1 receptor-associated kinase 4 (Homo sapiens); experiment: Protac activity at CRBN/IRAK4 in human TMD8 cells harboring MYD88 L265P mutant assessed as induction of IRAK4 degradation at 1 uM in presence of CRBN recruiter, pomalidomide by Western blot analysis; type: cell-based
[16] = target: T1, Protein cereblon/Interleukin-1 receptor-associated kinase 4 (Homo sapiens); experiment: Protac activity at CRBN/IRAK4 in human TMD8 cells harboring MYD88 L265P mutant assessed as induction of IRAK4 degradation by measuring reduction in IRAK4 protein level at 1 uM by Western blot analysis; type: cell-based; details: time 1-24 hrs, TDE = time-dependent effect
[17] = target: T1, Protein cereblon/Interleukin-1 receptor-associated kinase 4 (Homo sapiens); experiment: Protac activity at CRBN/IRAK4 in human OCILY10 cells assessed as inhibition of IRAK4 phosphorylation by Western blot analysis; type: cell-based; details: dose 0.1-10 µM
[18] = target: T1, Protein cereblon/Interleukin-1 receptor-associated kinase 4 (Homo sapiens); experiment: Protac activity at CRBN/IRAK4 in human OCILY10 cells harboring MYD88 L265P mutant assessed as induction of IRAK4 degradation by measuring reduction in IRAK4 protein level at 1 uM by Western blot analysis; type: cell-based; details: time 1-24 hrs, TDE = time-dependent effect
[19] = target: T1, Protein cereblon/Interleukin-1 receptor-associated kinase 4 (Homo sapiens); experiment: Protac activity at CRBN/IRAK4 in human OCILY10 cells harboring MYD88 L265P mutant assessed as induction of IRAK4 degradation at 1 uM in presence of CRBN recruiter, pomalidomide by Western blot analysis; type: cell-based
[20] = system: OCI-LY19; experiment: Antiproliferative activity against human OCILY19 cells harboring wild type MYD88 assessed as inhibition of cell growth incubated for 72 hrs by CCK-8 assay; type: functional, cell-based
[21] = target: T1, Protein cereblon/Interleukin-1 receptor-associated kinase 4 (Homo sapiens); experiment: Protac activity at CRBN/IRAK4 in human OCILY10 cells assessed as inhibition of IKKalpha/beta phosphorylation by Western blot analysis; type: cell-based; details: dose 0.1-10 µM
[22] = target: T1, Protein cereblon/Interleukin-1 receptor-associated kinase 4 (Homo sapiens); experiment: Protac activity at CRBN/IRAK4 in human TMD8 cells harboring MYD88 L265P mutant assessed as induction of IRAK4 degradation by measuring reduction in IRAK4 protein level incubated for 24 hrs by Western blot analysis; type: cell-based; details: dose 0.1-10 µM
[23] = target: T1, Protein cereblon/Interleukin-1 receptor-associated kinase 4 (Homo sapiens); experiment: Protac activity at CRBN/IRAK4 in human OCILY10 cells assessed as inhibition of NF-kappaB p65 phosphorylation by Western blot analysis; type: cell-based; details: dose 0.1-10 µM

T1 sequence (Q96SW2 whole entry, looked up, one chain of several): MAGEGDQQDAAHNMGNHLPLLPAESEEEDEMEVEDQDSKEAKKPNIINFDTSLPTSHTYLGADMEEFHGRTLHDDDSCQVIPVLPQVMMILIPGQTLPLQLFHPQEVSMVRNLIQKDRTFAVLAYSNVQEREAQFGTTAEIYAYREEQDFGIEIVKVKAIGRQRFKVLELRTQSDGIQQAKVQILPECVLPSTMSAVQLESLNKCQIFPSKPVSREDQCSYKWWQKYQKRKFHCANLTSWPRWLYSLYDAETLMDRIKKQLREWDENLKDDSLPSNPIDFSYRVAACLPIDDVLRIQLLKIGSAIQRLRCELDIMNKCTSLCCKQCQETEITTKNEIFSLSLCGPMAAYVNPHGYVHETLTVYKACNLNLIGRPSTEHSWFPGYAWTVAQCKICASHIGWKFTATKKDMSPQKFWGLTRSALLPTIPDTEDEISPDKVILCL

Row | SMILES | Activity [1] | Activity [2] | IC50 [3] | IC50 [4] | other results
1 | CCOc1cc2nc(CCC(C)(C)C(=O)NCCCCCCNc3cccc4c3C(=O)N(C3CCC(=O)NC3=O)C4=O)n(C)c2cc1NC(=O)c1cccc(C(F)(F)F)n1 (centres undefined) | inactive | inactive | – | – | –
2 | CCOc1cc2nc(CCC(C)(C)C(=O)OC)n(C)c2cc1NC(=O)c1cccc(C(F)(F)F)n1 | – | – | > 50 µM | > 50 µM | IC50 [5]: 0.0707 µM
3 | CCOc1cc2nc(CCC(C)(C)C(=O)NCCCCNc3cccc4c3C(=O)N(C3CCC(=O)NC3=O)C4=O)n(C)c2cc1NC(=O)c1cccc(C(F)(F)F)n1 (centres undefined) | inactive | inactive | – | – | –
4 | CCOc1cc2nc(CCC(C)(C)C(=O)NCCNc3cccc4c3C(=O)N(C3CCC(=O)NC3=O)C4=O)n(C)c2cc1NC(=O)c1cccc(C(F)(F)F)n1 (centres undefined) | inactive | inactive | – | – | –
5 | CCOc1cc2nc(CCC(C)(C)C(=O)NCCCCCCCNc3cccc4c3C(=O)N(C3CCC(=O)NC3=O)C4=O)n(C)c2cc1NC(=O)c1cccc(C(F)(F)F)n1 (centres undefined) | inactive | Active | – | – | –
6 | CCOc1cc2nc(CCC(C)(C)C(=O)NCCOCCOCCNc3cccc4c3C(=O)N(C3CCC(=O)NC3=O)C4=O)n(C)c2cc1NC(=O)c1cccc(C(F)(F)F)n1 (centres undefined) | Active | Active | 4.6 µM | 7.6 µM | Activity [6]: Active; Activity [7]: Dose-dependent effect; Activity [8]: inactive; Activity [9]: Dose-dependent effect; Activity [10]: Dose-dependent effect; Activity [11]: Dose-dependent effect; Activity [12]: inactive; Activity [13]: inactive; Activity [14]: inactive; Activity [15]: inactive; Activity [16]: Tde; Activity [17]: Dose-dependent effect; Activity [18]: Tde; Activity [19]: inactive; Activity [20]: inactive; Activity [21]: Dose-dependent effect; Activity [22]: Dose-dependent effect; Activity [23]: Dose-dependent effect
7 | CCOc1cc2nc(CCC(C)(C)C(=O)NCCOCCOCCNc3cccc4c3C(=O)N(C3CCC(=O)N(C)C3=O)C4=O)n(C)c2cc1NC(=O)c1cccc(C(F)(F)F)n1 (centres undefined) | inactive | inactive | 11 µM | > 50 µM | Activity [6]: inactive
8 | CCOc1cc2nc(CCC(C)(C)C(=O)NCCOCCNc3cccc4c3C(=O)N(C3CCC(=O)NC3=O)C4=O)n(C)c2cc1NC(=O)c1cccc(C(F)(F)F)n1 (centres undefined) | inactive | inactive | – | – | –
9 | CCOc1cc2nc(CCC(C)(C)C(=O)NCCCNc3cccc4c3C(=O)N(C3CCC(=O)NC3=O)C4=O)n(C)c2cc1NC(=O)c1cccc(C(F)(F)F)n1 (centres undefined) | inactive | inactive | – | – | –
10 | CCOc1cc2nc(CCC(C)(C)C(=O)NCCCCCNc3cccc4c3C(=O)N(C3CCC(=O)NC3=O)C4=O)n(C)c2cc1NC(=O)c1cccc(C(F)(F)F)n1 (centres undefined) | inactive | inactive | – | – | –
